Among the test systems are MDA-MB-231; Malme-3M; SK-MEL-28; NCI-H23; SF-539; RPMI-8226; M14; Hs-578T; PC-3; CAKI-1; SNB-19; HT-29; ACHN; OVCAR-5; HCC 2998; UACC-257; KM12; HCT-15; SK-OV-3; NCI/ADR-RES.
Common to all, as to assay: growth of human tumour cells (NCI), 48 h

The structures appear in SMILES notation.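 Briefly, cells in 96-well plates were exposed to five compound concentrations for 48 h, and endpoints were estimated by linear interpolation. The concentration for 50% growth inhibition is given as GI50.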 Active and inactive are the calls of the source. Rule as the data show it: active = GI50 up to about 1.1 µM and inactive = higher.

As for `CC(=O)OCCOCn1c2c(c(=S)[nH]c1=O)CCC2`, the GI50 in the assay on MDA-MB-231, in the assay with Malme-3M, in the assay with SK-MEL-28, with NCI-H23, in the assay with SF-539 and in the assay with RPMI-8226 was > 100 µM (inactive) each time. The GI50 in the assay on M14, in the assay on Hs-578T, in the assay on PC-3, with CAKI-1, in the assay with SNB-19 and in the assay on HT-29 was > 100 µM (inactive) in each case. Also, the GI50 in the assay with ACHN was > 100 µM (inactive); in the assay on OVCAR-5, > 100 µM (inactive); with HCC 2998, > 100 µM (inactive); in the assay on UACC-257, > 100 µM (inactive); in the assay on KM12 it was > 100 µM (inactive); in the assay on HCT-15 it was > 100 µM.
Regarding `COc1cc(C2=N/C(=C/c3cccs3)C(=O)O2)cc(OC)c1OC`, the GI50 in the assay with MDA-MB-231, in the assay on Malme-3M, in the assay with SK-MEL-28, in the assay with NCI-H23, in the assay on SF-539 and in the assay on RPMI-8226 was > 100 µM (inactive) each time. Further, the GI50 in the assay with M14, in the assay on Hs-578T, in the assay on PC-3, in the assay with CAKI-1, in the assay on SNB-19 and in the assay with SK-OV-3 was > 100 µM (inactive) throughout. Moreover, the GI50 in the assay on HT-29, with ACHN, in the assay with OVCAR-5, in the assay on HCC 2998, in the assay with UACC-257 and with KM12 was > 100 µM (inactive) throughout. Also, the GI50 with HCT-15 was > 100 µM.
Take `C=CCN1C(=O)C[C@H](Cc2ccccc2)NC(=O)C[C@H](Cc2ccccc2)N(CC=C)C(=O)C[C@H](Cc2ccccc2)NC(=O)C[C@@H]1Cc1ccccc1`: the GI50 was 8.79 µM (inactive) in the assay with MDA-MB-231; 3.81 µM (inactive) in the assay with Malme-3M; 61.9 µM (inactive) with SK-MEL-28; > 100 µM (inactive) with NCI-H23; 46.1 µM (inactive) in the assay with SF-539; 2.76 µM (inactive) in the assay on RPMI-8226. The GI50 was 8.09 µM (inactive) with M14; > 100 µM (inactive) with Hs-578T; 3.1 µM (inactive) with PC-3; 5.15 µM (inactive) in the assay with CAKI-1; > 100 µM (inactive) in the assay on SNB-19; 34 µM (inactive) in the assay on SK-OV-3. Moreover, the GI50 in the assay with HT-29 is 5.19 µM (inactive); in the assay with NCI/ADR-RES, 4.37 µM (inactive); with OVCAR-5 it was > 100 µM (inactive); with UACC-257 it was 6.97 µM (inactive); in the assay with KM12, 26 µM (inactive); with HCT-15, 12.2 µM.
In the case of `O=S1(=O)OCCOS(=O)(=O)C1F`, the GI50 with Malme-3M is > 100 µM (inactive); with SK-MEL-28, > 100 µM (inactive); in the assay on NCI-H23 it was > 100 µM (inactive); in the assay with SF-539, 43.6 µM (inactive); in the assay with RPMI-8226, > 100 µM (inactive); in the assay with M14, > 100 µM (inactive). For the same compound, the GI50 in the assay on Hs-578T, in the assay with PC-3, in the assay on CAKI-1, in the assay with SNB-19, with SK-OV-3 and in the assay with HT-29 was > 100 µM (inactive) throughout. Besides, the GI50 in the assay on NCI/ADR-RES, in the assay on ACHN, in the assay on OVCAR-5, in the assay on HCC 2998, in the assay with UACC-257 and in the assay with KM12 was > 100 µM (inactive) in each case. Further, in the assay with HCT-15, the GI50 is > 100 µM.
For `COC(=O)C1SC(N(C)c2ccccc2)=NC12c1ccccc1Nc1ccccc12` (stereo not given), the GI50 in the assay on Malme-3M was 15.8 µM (inactive); in the assay with SK-MEL-28, 19.2 µM (inactive); in the assay with NCI-H23, 13.6 µM (inactive); in the assay on SF-539, 18.4 µM (inactive); in the assay on RPMI-8226, 3.08 µM (inactive); in the assay on M14, 19.5 µM (inactive). Also, the GI50 was 14.5 µM (inactive) with Hs-578T; 16.3 µM (inactive) with PC-3; 23.8 µM (inactive) in the assay on CAKI-1; 23.9 µM (inactive) with SNB-19; 39.8 µM (inactive) in the assay on SK-OV-3; 19.3 µM (inactive) in the assay with HT-29. For the same compound, the GI50 in the assay on NCI/ADR-RES is 13.5 µM (inactive); with ACHN, 31 µM (inactive); with OVCAR-5, 25.3 µM (inactive); in the assay with HCC 2998, 20.5 µM (inactive); in the assay with UACC-257 it was 25.2 µM (inactive); in the assay on KM12 it was 18.3 µM (inactive). Also, the GI50 in the assay with HCT-15 was 13.6 µM.
Take `CSc1ccc(/C=C2\CNC/C(=C\c3ccc(SC)cc3)C2=O)cc1`: the GI50 in the assay with MDA-MB-231 was 86.9 µM (inactive); in the assay on Malme-3M, > 199 µM (inactive); in the assay on SK-MEL-28 it was > 209 µM (inactive); in the assay with SF-539, 18.4 µM (inactive); with RPMI-8226, > 79.8 µM (inactive); in the assay on M14 it was > 206 µM (inactive). Besides, the GI50 in the assay with Hs-578T is 64.1 µM (inactive); in the assay on PC-3, > 100 µM (inactive); in the assay on SNB-19, 26.7 µM (inactive); in the assay with SK-OV-3 it was 96.8 µM (inactive); in the assay with ACHN it was 120 µM (inactive); with OVCAR-5, > 284 µM (inactive). Moreover, the values for the GI50 in the assay on UACC-257 and in the assay on HCT-15 were > 143 µM (inactive) and > 179 µM, respectively.
On to `COc1cc(N(CCC#N)CCC#N)ccc1/C=N\NC(=O)c1ccc(C)cc1`, for which the GI50 in the assay on MDA-MB-231 was 18.2 µM (inactive); in the assay on Malme-3M it was > 100 µM (inactive); with SK-MEL-28, > 100 µM (inactive); with NCI-H23, > 100 µM (inactive); in the assay on SF-539 it was > 100 µM (inactive); with M14, > 100 µM (inactive). The GI50 in the assay with Hs-578T was > 100 µM (inactive); in the assay with PC-3, 17.3 µM (inactive); with CAKI-1, > 100 µM (inactive); with SNB-19, > 100 µM (inactive); with SK-OV-3 it was > 100 µM (inactive); in the assay with HT-29 it was > 100 µM (inactive). Besides, the GI50 in the assay with NCI/ADR-RES was > 100 µM (inactive); in the assay on ACHN, > 100 µM (inactive); with OVCAR-5, > 100 µM (inactive); in the assay on UACC-257 it was > 100 µM (inactive); in the assay with KM12, > 100 µM (inactive); with HCT-15 it was > 100 µM.
`[N-]=[N+]=NC(c1cn(C2CC(O)C(CO)O2)c(=O)[nH]c1=O)C(Cl)I` (stereo not given): the GI50 in the assay with MDA-MB-231, in the assay with SK-MEL-28, in the assay on NCI-H23, in the assay with SF-539, in the assay on RPMI-8226 and in the assay on M14 was > 100 µM (inactive) throughout. Besides, the GI50 in the assay with Hs-578T, with SNB-19, in the assay on SK-OV-3, with HT-29, in the assay with NCI/ADR-RES and in the assay on ACHN was > 100 µM (inactive) each time. For the same compound, the GI50 is > 100 µM (inactive) in the assay on OVCAR-5; > 100 µM (inactive) in the assay with HCC 2998; > 100 µM (inactive) in the assay on UACC-257; > 100 µM (inactive) in the assay on KM12; > 100 µM in the assay with HCT-15.
`O=C1C=CC(=O)c2c1ccc1c3ccccc3n(-c3ccccc3)c21`: the GI50 was 4.45 µM (inactive) in the assay on MDA-MB-231; 4.47 µM (inactive) in the assay on Malme-3M; 3.34 µM (inactive) in the assay on SK-MEL-28; 15.4 µM (inactive) in the assay on NCI-H23; 15.7 µM (inactive) in the assay with SF-539; 1.26 µM (inactive) in the assay on RPMI-8226. Further, the GI50 was 7.78 µM (inactive) in the assay on M14; 17.7 µM (inactive) in the assay on Hs-578T; 13.6 µM (inactive) in the assay with PC-3; 7.18 µM (inactive) in the assay with CAKI-1; 19.5 µM (inactive) in the assay on SNB-19; 16.8 µM (inactive) in the assay on SK-OV-3. The GI50 in the assay on HT-29 was 15.8 µM (inactive); in the assay on ACHN, 3.26 µM (inactive); with OVCAR-5, 17.1 µM (inactive); in the assay on HCC 2998, 24.9 µM (inactive); in the assay with UACC-257, 5.65 µM (inactive); with KM12, 17.9 µM (inactive). For the same compound, the GI50 in the assay with HCT-15 is 3.48 µM.
For `NC(=O)CNC(=O)[C@@H]1CC(OCCC(=O)O)CN1C(=O)C1CCCN1C(=O)OCc1ccccc1` (stereo not given in full), the GI50 with MDA-MB-231, in the assay with Malme-3M, in the assay on SK-MEL-28, with NCI-H23, in the assay on RPMI-8226 and with M14 was > 100 µM (inactive) each time. For the same compound, the GI50 in the assay on Hs-578T, in the assay on PC-3, with SNB-19, with SK-OV-3, in the assay with HT-29 and with NCI/ADR-RES was > 100 µM (inactive) throughout. Also, the GI50 in the assay on ACHN was > 100 µM (inactive); in the assay on OVCAR-5, > 100 µM (inactive); in the assay with UACC-257 it was > 100 µM (inactive); in the assay with KM12, > 100 µM (inactive); with HCT-15, > 100 µM.
As to `O=c1cc(-c2ccccc2)oc2ccc(-c3ccc4oc(-c5ccccc5)cc(=O)c4c3)cc12`, the GI50 with Malme-3M is 20.3 µM (inactive); with NCI-H23, 15.7 µM (inactive); with SF-539, 15.6 µM (inactive); with RPMI-8226 it was 13.5 µM (inactive); with M14, 16.6 µM (inactive); in the assay with Hs-578T, 12.2 µM (inactive). The GI50 in the assay on PC-3 is > 10 µM (inactive); in the assay on CAKI-1, 16.6 µM (inactive); in the assay on SNB-19 it was 6.82 µM (inactive); in the assay with SK-OV-3, 44.8 µM (inactive); in the assay on HT-29 it was 30.9 µM (inactive); in the assay with NCI/ADR-RES, 16.8 µM (inactive). For the same compound, the GI50 with ACHN was 20.5 µM (inactive); in the assay on OVCAR-5, 27.6 µM (inactive); in the assay on HCC 2998 it was 16 µM (inactive); in the assay with UACC-257 it was > 10 µM (inactive); in the assay with HCT-15 it was 15.8 µM.

Values taken from ChEMBL document CHEMBL1201862, “PubChem BioAssay data set” (2004).
